Reference: US20260297129A1, “PEPTIDES AS SELECTIVE IL-23 RECEPTOR INHIBITORS” (SANOFI, priority 2023, published 2026)
pIC50: −log10 of the molar value. ≈ marks a conversion by molar mass, not a printed value. Read-outs that look alike come from different tables or passages of the source. Numbered stars: 1 amine (or outer) side, 2 acyl side, 3 side chain; on linkers, the order of the positions; unused ones are H or OH. Bridge positions count the residues as written; N and C are the ends. Square brackets hold non-standard residues; d marks the D form. Peptide text beside a SMILES is read from it. * marks the point of attachment. Lys(Me,(CH2)4NMe(CH2)5CO) = CN(CCCCCC(=O)[*:3])CCCCN(C)CCCC[C@H](N[*:1])C(=O)[*:2]; Lys(Me,(CH2)4NMe(CH2)4CO) = CN(CCCCC(=O)[*:3])CCCCN(C)CCCC[C@H](N[*:1])C(=O)[*:2]; X3 = Cc1cccc2c(C[C@H](N[*:1])C(=O)[*:2])cn(C)c12; Trp(7-Me) = Cc1cccc2c(C[C@H](N)C(=O)O)c[nH]c12; NH(2-(3-pyridyl)ethyl) = c1cncc(CCN*)c1; Sebacoyl = O=C(CCCCCCCCC(=O)[*:2])[*:1]; NH(CH2)9CO = O=C(CCCCCCCCCN[*:1])[*:2]; 2Nal = N[C@@H](Cc1ccc2ccccc2c1)C(=O)O; X4 = O=C(CCCCCCCCCCCCCCCN[*:1])[*:2]; 3Pal = N[C@@H](Cc1cccnc1)C(=O)O; Lys(Me) = CNCCCC[C@H](N)C(=O)O; Thp = NC1(C(=O)O)CCOCC1; Me2NCH2CH2 = CN(C)CC*; Aib = CC(C)(N)C(=O)O; Aoc = NCCCCCCCC(=O)O; Sar = CNCC(=O)O

Key:
[1] = tested on: IL-23 induced STAT3 signaling (IL-23 receptor) in HEK-Blue IL-23 cells; assay: Inhibition of IL-23 induced STAT3 signaling in HEK-Blue IL-23 cells, SEAP reporter (Table 9); type: cell-based; details: human IL23 0.25 ng/ml, overnight, read-out: Inhibition of IL-23 induced pSTAT3 (IC50 nM)
Procedure, shortened: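 HEK-Blue IL-23 reporter cells (10,000/well) pre-incubated 60 min at 37 °C with serially diluted peptides, then stimulated overnight with human IL-23 at 0.25 ng/ml final. SEAP in supernatant read by QUANTI-Blue, 45 min room temperature, OD 620–655 nm; dose-response curve fitting.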

[2] = Protease stability in simulated gastric fluids (FaSSGF) (Table 7); type: in vitro ADME; details: fassgf with pepsin, 60 min, 37° C., read-out: Remaining percentage of peptide compound, FaSSGF 60 (min)
Procedure, shortened: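 Peptides at 1 μM final were incubated at 37 °C in simulated gastric fluid with pepsin (320 mg per 100 mL SGF concentrate). Samples were quenched with ethanol (0.1% HCOOH) at 0, 60, 120 and 240 min and analysed by LC-MS/MS. Percent remaining is the peak area relative to T0 (100%).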

[3] = Protease stability in simulated intestinal fluids (FaSSIF) (Table 7); type: in vitro ADME; details: fassif with pancreatin, 37° C.; for remaining at 1 h, 1 µM: 60 min, read-out: Remaining percentage of peptide compound, FaSSIF 60 (min); for remaining at 2 h, 1 µM: 120 min, read-out: Remaining percentage of peptide compound, FaSSIF 120 (min); for remaining at 4 h, 1 µM: 240 min, read-out: Remaining percentage of peptide compound, FaSSIF 240 (min)
Procedure, shortened: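 1 μM peptide incubated at 37° C in simulated fluid (pancreatin-SIF prepared from pancreatin in SIF concentrate). Samples quenched with acidified ethanol at 0, 60, 120 and 240 min and analysed by LC-MS/MS. Percentage remaining from peak area relative to T0 (100%).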

[4] = Solubility of peptide compounds in buffer formulations (Table 5); type: physicochemical; details: target 1 mg/ml
Procedure, shortened: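 Peptide solids, dried from DMSO stock, were taken up at 1 mg/mL in 50 mM HCl pH 1.2, or 50 mM phosphate pH 6.5 or pH 7.4. After 2 h gentle agitation and filtration (0.45 μm), solubility was determined by UHPLC-UV peak area against a DMSO standard of known concentration.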

human IL-23R = target: T1, human IL-23R (Homo sapiens, UniProt Q5VWK5); assay: Inhibition of IL-23 binding to IL-23R as measured by ELISA (Table 8); details: human IL23 coated 1 μg/ml; human IL-23R-Fc 0.1 μg/ml; 60 min; read-out: Human ELISA IL23/IL23R IC50
T1 sequence (Q5VWK5 24-353 limits assumed): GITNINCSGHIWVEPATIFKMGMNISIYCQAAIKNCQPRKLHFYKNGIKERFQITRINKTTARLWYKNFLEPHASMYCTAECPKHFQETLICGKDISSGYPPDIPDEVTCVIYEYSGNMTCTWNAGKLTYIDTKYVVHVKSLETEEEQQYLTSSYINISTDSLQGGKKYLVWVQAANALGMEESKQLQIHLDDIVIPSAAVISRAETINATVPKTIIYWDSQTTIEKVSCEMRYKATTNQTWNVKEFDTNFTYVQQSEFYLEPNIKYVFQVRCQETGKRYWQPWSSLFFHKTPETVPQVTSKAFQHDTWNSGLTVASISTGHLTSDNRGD
Description: Antagonism of compounds for human interleukin-23 receptor inhibitors, was determined by an ELISA assay.
A 384-well plate was coated with 50 μl/well of human IL23 at a final concentration of 1 μg/ml and incubated overnight at 4° C. The wells were washed 3 times with 80 μl wash buffer and blocked with 80 μl blocking buffer for 60 minutes at room temperature and washed again. 20 μl of serially diluted test peptides was added to each well and subsequently 20 μl of recombinant human IL-23R-Fc chimera at final concentration of 0.1 μg/ml. The plate was incubated for 60 minutes at room temperature. After the wells were washed, bound IL23R-Fc was detected with goat anti-hu-IgG1-HRP antibody. Signals were visualized with QUANTABLU fluorogenic peroxidase substrate.

[5] = Chemical stability (relative purity loss) of peptide compounds in buffer formulations (Table 6); type: physicochemical; details: 2° C. and 37° C.
Procedure, shortened: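 Compounds at 0.5 mg/mL in 50 mM HCl pH 1.2, 50 mM phosphate pH 6.5 or pH 7.4, each with acetonitrile (3:1), stored 24 hours at 2° C and 37° C. Purity measured by UHPLC-UV before and after. Stability expressed as relative purity loss.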

[6] = Buffer pH 1.1 (head; method: 50 mM HCl pH 1.2), 2 h agitation, read-out: Solubility, Buffer pH 1.1
[7] = aqueous buffer, 50 mM phosphate buffer pH 6.5, 2 h agitation, read-out: Solubility, Buffer pH 6.5
[8] = aqueous buffer, 50 mM phosphate buffer pH 7.4, 2 h agitation, read-out: Solubility, Buffer pH 7.4
[9] = 50 mM phosphate buffer pH 6.5 + acetonitrile (3:1), read-out: Chemical stability (relative purity loss), Buffer pH 6.5
[10] = 50 mM phosphate buffer pH 7.4 + acetonitrile (3:1), read-out: Chemical stability (relative purity loss), Buffer pH 7.4
[11] = 50 mm hcl + acetonitrile, Buffer pH 1.1 (head; method: 50 mM HCl pH 1.2 + acetonitrile 3:1), read-out: Chemical stability (relative purity loss), Buffer pH 1.1

| Compound | remaining at 1 h, 1 µM [2] [%] | remaining at 1 h, 1 µM [3] [%] | remaining at 2 h, 1 µM [3] [%] | remaining at 4 h, 1 µM [3] [%] | solubility at 2 h [4, 6] [µg/mL] | solubility at 2 h [4, 7] [µg/mL] | solubility at 2 h [4, 8] [µg/mL] | pIC50 (human IL-23R) | degraded at 24 h [5, 9] [%] | degraded at 24 h [5, 10] [%] | degraded at 24 h [5, 11] [%] | IC50 [1] [nM] |
| --- | --- | --- | --- | --- | --- | --- | --- | --- | --- | --- | --- | --- |
| Cc1cccc2c(C[C@@H]3NC(=O)CCCCCCCCCNC(=O)CC[C@@H](C(=O)N[C@@H](CC(N)=O)C(=O)N[C@@H](Cc4cccnc4)C(=O)N(C)CC(N)=O)NC(=O)C(C)(C)NC(=O)[C@H](Cc4ccc5ccccc5c4)NC(=O)[C@H](Cc4ccc(OCCN(C)C)cc4)NC(=O)C4(CCOCC4)NC(=O)[C@H](CCC(N)=O)NC3=O)c[nH]c12 [compound 5] ([NH(CH2)9CO][Trp(7-Me)]Q[Thp]Y(Me2NCH2CH2)[2Nal][Aib]EN[3Pal][Sar]-NH2; lactam N-8) | 87 | 77 | 74 | 70 | ≥ 1010 | 350 (≈ 218 µM) | 170 (≈ 106 µM) | 9.19 | – | – | – | 0.26 |
| Cc1cccc2c(C[C@@H]3NC(=O)CCCCCCCNC(=O)CC[C@@H](C(=O)N[C@@H](CC(N)=O)C(=O)N[C@@H](Cc4cccnc4)C(=O)N(C)CC(N)=O)NC(=O)C(C)(C)NC(=O)[C@H](Cc4ccc5ccccc5c4)NC(=O)[C@H](Cc4ccc(OCCN(C)C)cc4)NC(=O)C4(CCOCC4)NC(=O)[C@H](CCC(N)=O)NC3=O)c[nH]c12 [compound 6] ([Aoc][Trp(7-Me)]Q[Thp]Y(Me2NCH2CH2)[2Nal][Aib]EN[3Pal][Sar]-NH2; lactam N-8) | 88 | 86 | 77 | 77 | ≥ 1240 | ≥ 1040 | ≥ 1090 | 9.17 | – | – | – | 4.77 |
| Cc1cccc2c(C[C@@H]3NC(=O)CCCCN(C)CCCCN(C)CCCC[C@@H](C(=O)NCC(=O)NCCc4cccnc4)NC(=O)C(C)(C)NC(=O)[C@H](Cc4ccc5ccccc5c4)NC(=O)[C@H](Cc4ccc(OCCN(C)C)cc4)NC(=O)C4(CCOCC4)NC(=O)[C@H](CCC(N)=O)NC3=O)c[nH]c12 [compound 24] ([Trp(7-Me)]Q[Thp]Y(Me2NCH2CH2)[2Nal][Aib][Lys(Me,(CH2)4NMe(CH2)4CO)]G-{NH(2-(3-pyridyl)ethyl)}; lactam N-7) | – | – | – | – | ≥ 990 | ≥ 900 | ≥ 880 | 9.08 | – | – | – | 6.95 |
| Cc1cccc2c(C[C@@H]3NC(=O)CCCCN(C)CCCCN(C)CCCC[C@@H](C(=O)NCC(=O)NCCc4cccnc4)NC(=O)C(C)(C)NC(=O)[C@H](Cc4ccc5ccccc5c4)NC(=O)[C@H](Cc4ccc(OCCN(C)C)cc4)NC(=O)C4(CCOCC4)NC(=O)[C@H](CC(C)C)NC3=O)cn(C)c12 [compound 49] ([X3]L[Thp]Y(Me2NCH2CH2)[2Nal][Aib][Lys(Me,(CH2)4NMe(CH2)4CO)]G-{NH(2-(3-pyridyl)ethyl)}; lactam N-7) | 99 | 100 | 100 | 101 | ≥ 900 | 250 (≈ 171 µM) | 40 (≈ 27.4 µM) | – | 0 | 0 | 0 | 35.4 |

Further lines, with some results ahead:

| remaining at 1 h, 1 µM [2] [%] | remaining at 1 h, 1 µM [3] [%] | remaining at 2 h, 1 µM [3] [%] | remaining at 4 h, 1 µM [3] [%] | solubility at 2 h [4, 6] [µg/mL] | solubility at 2 h [4, 7] [µg/mL] | solubility at 2 h [4, 8] [µg/mL] | pIC50 (human IL-23R) | degraded at 24 h [5, 9] [%] | degraded at 24 h [5, 10] [%] | degraded at 24 h [5, 11] [%] | Compound | IC50 [1] [nM] |
| --- | --- | --- | --- | --- | --- | --- | --- | --- | --- | --- | --- | --- |
| 71 | 84 | 81 | 81 | ≥ 990 | < 10 | < 10 | 8.88 | – | – | – | Cc1cccc2c(C[C@@H]3NC(=O)CCCCCCCCCCCCCCCNC(=O)CC[C@@H](C(=O)N[C@@H](CC(N)=O)C(=O)N[C@@H](Cc4cccnc4)C(=O)N(C)CC(N)=O)NC(=O)C(C)(C)NC(=O)[C@H](Cc4ccc5ccccc5c4)NC(=O)[C@H](Cc4ccc(OCCN(C)C)cc4)NC(=O)C4(CCOCC4)NC(=O)[C@H](CCC(N)=O)NC3=O)c[nH]c12 [compound 3] ([X4][Trp(7-Me)]Q[Thp]Y(Me2NCH2CH2)[2Nal][Aib]EN[3Pal][Sar]-NH2; lactam N-8) | 9.92 |
| 100 | 93 | 91 | 90 | ≥ 1020 | ≥ 1220 | ≥ 1090 | – | 0 | 0 | 6 | Cc1cccc2c(C[C@@H]3NC(=O)CCCCCN(C)CCCCN(C)CCCC[C@@H](C(=O)N[C@@H](CC(N)=O)C(=O)N[C@@H](Cc4cccnc4)C(=O)N(C)CC(N)=O)NC(=O)C(C)(C)NC(=O)[C@H](Cc4ccc5ccccc5c4)NC(=O)[C@H](Cc4ccc(OCCN(C)C)cc4)NC(=O)C4(CCOCC4)NC(=O)[C@H](CCC(N)=O)NC3=O)c[nH]c12 [compound 31] ([Trp(7-Me)]Q[Thp]Y(Me2NCH2CH2)[2Nal][Aib][Lys(Me,(CH2)4NMe(CH2)5CO)]N[3Pal][Sar]-NH2; lactam N-7) | 0.71 |
| 97 | 80 | 78 | 74 | ≥ 1390 | 120 (≈ 73.6 µM) | 80 (≈ 49.1 µM) | 9.20 | – | – | – | Cc1cccc2c(C[C@@H]3NC(=O)CCCCCCCCC(=O)N(C)CCCC[C@@H](C(=O)N[C@@H](CC(N)=O)C(=O)N[C@@H](Cc4cccnc4)C(=O)N(C)CC(N)=O)NC(=O)C(C)(C)NC(=O)[C@H](Cc4ccc5ccccc5c4)NC(=O)[C@H](Cc4ccc(OCCN(C)C)cc4)NC(=O)C4(CCOCC4)NC(=O)[C@H](CCC(N)=O)NC3=O)c[nH]c12 [compound 19] ([Trp(7-Me)]Q[Thp]Y(Me2NCH2CH2)[2Nal][Aib][Lys(Me)]N[3Pal][Sar]-NH2; linker N-7 via Sebacoyl) | 0.24 |
| 13 | 95 | 96 | 95 | ≥ 1410 | < 10 | < 10 | – | 0 | 0 | 0 | Cc1cccc2c(C[C@@H]3NC(=O)CCCCCCCCC(=O)N(C)CCCC[C@@H](C(=O)NCC(=O)NCCc4cccnc4)NC(=O)C(C)(C)NC(=O)[C@H](Cc4ccc5ccccc5c4)NC(=O)[C@H](Cc4ccc(OCCN(C)C)cc4)NC(=O)C4(CCOCC4)NC(=O)[C@H](CC(C)C)NC3=O)c[nH]c12 [compound 17] ([Trp(7-Me)]L[Thp]Y(Me2NCH2CH2)[2Nal][Aib][Lys(Me)]G-{NH(2-(3-pyridyl)ethyl)}; linker N-7 via Sebacoyl) | 14.3 |
